Data: patent US8841342B2, “Carrier” (Vital Health Sciences Pty. Ltd., priority 2002, dated 2014)

Experiments:
[1] = cited from earlier work
[2] = Transdermal delivery of estradiol and estradiol phosphate in ovariectomised hairless rats, total estrogens RIA in plasma
Procedure: Animals: 23 female albino hairless rats were ovariectomised under isoflurane-induced anaesthesia and allowed to recover for 10 days prior to experimentation.
Blood was collected into EDTA tubes, then centrifuged at 5000 rpm for 10 minutes. Plasma was removed and stored at −80° C. until assayed.
20 μl was transferred to an Eppendorf tube and the solvent was evaporated in a nitrogen stream. Then 0.999 g of the carrier cream from example 1 was added, and mixed with a glass rod and centrifuged. This was repeated 5 times. Final concentration=4.90 μg/ml.
20 μl was transferred to an Eppendorf tube and the solvent was evaporated in a nitrogen stream. Then 1.003 g of the carrier cream from example 1 was added, and mixed with a glass rod and centrifuged. This was repeated 5 times. Final concentration=4.89 μg/ml.
20 μl of these solutions was directly applied to the skin.
Each formulation was applied to the dorsal skin of an anaesthetised rat in an area of approximately 4 cm^2 marked with an indelible felt tip marker. […] The formulation was ‘rubbed’ in until it appeared to have been absorbed into the skin, which took between 5-10 min. […]
The standard curve range for this assay is 2.5-100 pg/ml (r^2=−0.943). Extraction efficiency was determined through a series of spiking assays and was between 90 to 98% using diethyl ether as the extraction solvent for rat plasma and organs. […]

[3] = Acute transdermal penetration of 3H-estradiol and 3H-estradiol phosphate in the hairless rat; type: in vivo, female albino hairless rats; conditions: 24 hour period
Procedure: Animals: 6 female albino hairless rats were used in this study (n=3 per treatment group).
Transdermal Formulation Preparation and Application: ^3H-E and ^3H-EP were provided by Vital Health Sciences Pty Ltd and prepared in formula approximately 1 hour before application in the carrier cream from Example 1.
The solvents from both ^3H-E and ^3H-EP were evaporated under a stream of nitrogen. Once completely dry 0.498 g of the carrier cream of example 1 was added to ^3H-E and 0.502 g to ^3H-EP and mixed with a glass rod and centrifuged for 1 minute. This was repeated 5 times.
Each formulation was applied to the dorsal skin of an anaesthetised rat in an area of approximately 4 cm^2 marked with an indelible felt tip marker. […] The formulation was ‘rubbed’ in until it appeared to have been absorbed into the skin, which took between 5 to 10 minutes. A tegaderm (3M) patch was applied to the area to prevent animals from removing the formulation.

[4] = Transdermal delivery of testosterone and testosterone phosphate in ovariectomised hairless rats, total testosterone in plasma; type: in vivo, Female albino hairless rats; conditions: for concentration of testosterone in blood: topical 1 μg in carrier of Example 1
Procedure: Animals: 12 Female albino hairless rats were ovariectomised under isoflurane-induced anesthesia and allowed to recover for 15 days prior to experimentation.
Plasma was removed and stored at −80° C. until assay.
Testosterone Phosphate (TP): 4.41 mg of TP was dissolved in 15 ml of water and then made up to 100 ml with ethanol. […] This was repeated 5 times.
Testosterone (T): 3.94 mg of T was dissolved in 15 ml of water and then made up to 100 ml with ethanol. […] This was repeated 5 times.

In the case of `C[C@]12CC[C@@H]3c4ccc(O)cc4CC[C@H]3[C@@H]1CC[C@@H]2O` [E, estradiol], the “mean blood levels of estradiol 24 hours post dose” value ([1]; 3 mg daily over 30 cm2, carrier with padimate O, 4 women, 9 days) is given as 0.053 ± 0.007 ng/mL and the “improvement of circulating estradiol from baseline” value ([1]; baseline 13±5 pg/ml) is given as 4 fold.

In the case of `C[C@]12CC[C@@H]3c4ccc(O)cc4CC[C@H]3[C@@H]1CC[C@@H]2OP(=O)(O)O` [EP, estradiol 3:phosphate], the “plasma concentration of the hormone, EP versus E treatment” value ([2]; equivalent doses in carrier of Example 1, over 24 hours) is reported as “at least twice the plasma concentration of the hormone compared to the E treatment”, the “inflammatory symptoms (erythema, oedema) at the application site” value ([2]; topical in carrier cream of Example 1) is reported as “neither E or EP treatment produced any inflammatory symptoms” and the “levels in epidermis and dermis” value [3] is reported as “Higher levels of EP were found in the epidermis and dermis”.

For `C[C@]12CC[C@H]3[C@@H](CCC4=CC(=O)CC[C@@]43C)[C@@H]1CC[C@@H]2O` [T, testosterone], the “concentration of testosterone in blood” value [4] was “increased” and the “maximum concentration of total testosterone in plasma (mean±SD)” value ([4]; topical 1 μg in carrier of Example 1, baseline subtracted) was 30.90 ± 11.00 pg/mL.

With testosterone phosphate [TP] the “concentration of testosterone in blood” value [4] was “increased”.
